For 17 compounds, IC50 and Activity results are on record in ChEMBL document CHEMBL3425413, “Structure-based design and synthesis of covalent-reversible inhibitors to overcome drug resistance in EGFR” (Bioorg Med Chem, 2015).

Experiment [1] concerns the target Epidermal growth factor receptor (Homo sapiens, UniProt P00533, L858R). Kind of experiment: Inhibition of GST-tagged human recombinant EGFR catalytic domain (668 to 1210 amino acids) L858R mutant expressed in Sf9 cells pre-incubated for 30 mins before ATP and substrate addition by homogeneous time-resolved FRET assay.
The target of experiment [2] is Epidermal growth factor receptor (Homo sapiens, UniProt P00533). Kind of experiment: Inhibition of wild type N-terminal His6-tagged human EGFR kinase domain (702 to 1016 residues) expressed in Sf9 cells pre-incubated for 30 mins before ATP and substrate addition by homogeneous time-resolved FRET assay.
Chain of Epidermal growth factor receptor (Homo sapiens, UniProt P00533) (P00533 whole entry, the tested form may be a part): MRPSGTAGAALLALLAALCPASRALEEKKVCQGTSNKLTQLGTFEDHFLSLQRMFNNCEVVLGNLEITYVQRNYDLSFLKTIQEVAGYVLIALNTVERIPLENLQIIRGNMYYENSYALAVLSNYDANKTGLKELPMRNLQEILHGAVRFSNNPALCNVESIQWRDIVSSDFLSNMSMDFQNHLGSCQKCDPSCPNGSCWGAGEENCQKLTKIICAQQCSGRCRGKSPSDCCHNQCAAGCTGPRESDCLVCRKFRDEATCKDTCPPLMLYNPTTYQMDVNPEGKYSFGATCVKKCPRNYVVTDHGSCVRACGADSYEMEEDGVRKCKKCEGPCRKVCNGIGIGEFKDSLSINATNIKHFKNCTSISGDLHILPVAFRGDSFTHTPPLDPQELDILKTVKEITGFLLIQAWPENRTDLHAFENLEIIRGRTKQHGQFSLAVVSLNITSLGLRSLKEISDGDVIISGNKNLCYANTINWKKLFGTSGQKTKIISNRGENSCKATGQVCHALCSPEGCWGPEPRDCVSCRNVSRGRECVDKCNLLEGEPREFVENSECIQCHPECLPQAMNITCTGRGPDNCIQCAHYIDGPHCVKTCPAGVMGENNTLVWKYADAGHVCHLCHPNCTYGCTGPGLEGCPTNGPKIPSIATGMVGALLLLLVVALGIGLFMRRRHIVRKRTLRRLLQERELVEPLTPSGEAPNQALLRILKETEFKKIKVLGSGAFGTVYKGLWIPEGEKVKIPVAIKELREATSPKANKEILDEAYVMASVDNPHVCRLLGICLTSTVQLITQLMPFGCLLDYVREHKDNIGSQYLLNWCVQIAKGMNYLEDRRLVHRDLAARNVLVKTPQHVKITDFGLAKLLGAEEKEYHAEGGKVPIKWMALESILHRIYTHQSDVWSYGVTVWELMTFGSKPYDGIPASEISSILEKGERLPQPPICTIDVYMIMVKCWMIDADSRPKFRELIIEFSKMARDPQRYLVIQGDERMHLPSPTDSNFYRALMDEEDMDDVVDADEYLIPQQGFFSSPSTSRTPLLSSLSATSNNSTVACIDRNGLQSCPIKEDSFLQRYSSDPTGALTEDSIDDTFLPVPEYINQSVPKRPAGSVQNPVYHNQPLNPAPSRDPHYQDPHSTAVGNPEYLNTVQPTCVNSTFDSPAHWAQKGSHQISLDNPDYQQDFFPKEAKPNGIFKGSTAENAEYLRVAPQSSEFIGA
In experiment [3] the target is Epidermal growth factor receptor (Homo sapiens, UniProt P00533, L858R/T790M). Kind of experiment: Inhibition of GST-tagged human recombinant EGFR catalytic domain (668 to 1210 amino acids) T790M/L858R mutant expressed in Sf9 cells pre-incubated for 30 mins before ATP and substrate addition by homogeneous time-resolved FRET assay.
Chain of Epidermal growth factor receptor (Homo sapiens, UniProt P00533, L858R/T790M) (P00533 25-1210 T790M/L858R limits assumed): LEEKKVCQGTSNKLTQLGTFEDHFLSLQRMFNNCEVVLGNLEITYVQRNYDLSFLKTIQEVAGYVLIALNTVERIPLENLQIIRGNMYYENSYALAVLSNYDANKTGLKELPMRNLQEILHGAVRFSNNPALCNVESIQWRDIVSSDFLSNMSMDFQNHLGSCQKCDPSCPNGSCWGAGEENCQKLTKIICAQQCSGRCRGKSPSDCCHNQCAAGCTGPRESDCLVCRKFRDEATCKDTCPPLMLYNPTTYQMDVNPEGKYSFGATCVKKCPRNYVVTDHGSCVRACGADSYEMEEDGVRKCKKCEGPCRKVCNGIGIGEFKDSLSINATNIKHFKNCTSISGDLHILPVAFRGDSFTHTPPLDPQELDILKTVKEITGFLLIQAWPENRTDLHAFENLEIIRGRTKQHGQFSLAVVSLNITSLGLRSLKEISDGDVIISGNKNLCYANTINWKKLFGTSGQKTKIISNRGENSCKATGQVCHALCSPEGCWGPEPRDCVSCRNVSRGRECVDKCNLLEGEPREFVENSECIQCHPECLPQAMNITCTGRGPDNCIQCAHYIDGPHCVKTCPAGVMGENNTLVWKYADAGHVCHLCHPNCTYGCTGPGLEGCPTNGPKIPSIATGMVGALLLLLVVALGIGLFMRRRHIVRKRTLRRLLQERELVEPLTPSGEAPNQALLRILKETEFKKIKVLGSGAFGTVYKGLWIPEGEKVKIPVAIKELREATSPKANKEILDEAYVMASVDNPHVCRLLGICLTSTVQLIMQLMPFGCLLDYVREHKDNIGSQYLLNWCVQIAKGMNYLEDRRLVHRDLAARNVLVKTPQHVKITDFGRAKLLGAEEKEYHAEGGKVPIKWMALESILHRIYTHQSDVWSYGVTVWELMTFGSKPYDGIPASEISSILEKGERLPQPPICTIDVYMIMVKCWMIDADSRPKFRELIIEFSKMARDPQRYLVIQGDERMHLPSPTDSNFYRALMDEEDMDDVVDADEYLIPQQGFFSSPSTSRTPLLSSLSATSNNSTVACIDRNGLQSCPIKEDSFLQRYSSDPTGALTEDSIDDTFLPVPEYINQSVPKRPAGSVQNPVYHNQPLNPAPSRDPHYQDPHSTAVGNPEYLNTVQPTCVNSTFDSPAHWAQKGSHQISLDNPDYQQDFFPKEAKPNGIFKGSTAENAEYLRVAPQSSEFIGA
The target in experiment [4] is Proto-oncogene tyrosine-protein kinase Src (Homo sapiens) (UniProt P12931). Briefly: Induction of covalent modification of wild type c-Src kinase domain (251 to 533 residues) (unknown origin) at 100 uM incubated for 1 hr by mass spectrometry method.
The test system of experiment [5] is Proto-oncogene tyrosine-protein kinase Src (Homo sapiens), P12931 [T341M,S348C]. Briefly: Induction of covalent modification of c-Src kinase domain (251 to 533 residues) T338M/S345C mutant (unknown origin) at 100 uM incubated for 1 hr by mass spectrometry method.
Experiment [6] shares this test system. Briefly: Induction of covalent modification of c-Src kinase domain (251 to 533 residues) T338M/S345C mutant (unknown origin) assessed as protein mass increase at 100 uM incubated for 1 hr by mass spectrometry method.

pIC50: −log10 of the molar value. The source made the active and inactive calls. The rule behind the calls is not given here.

The pIC50 is the negative decadic logarithm of the IC50, by convention in mol/L.

Chain of Epidermal growth factor receptor (Homo sapiens, UniProt P00533, L858R) (P00533 25-1210 L858R limits assumed): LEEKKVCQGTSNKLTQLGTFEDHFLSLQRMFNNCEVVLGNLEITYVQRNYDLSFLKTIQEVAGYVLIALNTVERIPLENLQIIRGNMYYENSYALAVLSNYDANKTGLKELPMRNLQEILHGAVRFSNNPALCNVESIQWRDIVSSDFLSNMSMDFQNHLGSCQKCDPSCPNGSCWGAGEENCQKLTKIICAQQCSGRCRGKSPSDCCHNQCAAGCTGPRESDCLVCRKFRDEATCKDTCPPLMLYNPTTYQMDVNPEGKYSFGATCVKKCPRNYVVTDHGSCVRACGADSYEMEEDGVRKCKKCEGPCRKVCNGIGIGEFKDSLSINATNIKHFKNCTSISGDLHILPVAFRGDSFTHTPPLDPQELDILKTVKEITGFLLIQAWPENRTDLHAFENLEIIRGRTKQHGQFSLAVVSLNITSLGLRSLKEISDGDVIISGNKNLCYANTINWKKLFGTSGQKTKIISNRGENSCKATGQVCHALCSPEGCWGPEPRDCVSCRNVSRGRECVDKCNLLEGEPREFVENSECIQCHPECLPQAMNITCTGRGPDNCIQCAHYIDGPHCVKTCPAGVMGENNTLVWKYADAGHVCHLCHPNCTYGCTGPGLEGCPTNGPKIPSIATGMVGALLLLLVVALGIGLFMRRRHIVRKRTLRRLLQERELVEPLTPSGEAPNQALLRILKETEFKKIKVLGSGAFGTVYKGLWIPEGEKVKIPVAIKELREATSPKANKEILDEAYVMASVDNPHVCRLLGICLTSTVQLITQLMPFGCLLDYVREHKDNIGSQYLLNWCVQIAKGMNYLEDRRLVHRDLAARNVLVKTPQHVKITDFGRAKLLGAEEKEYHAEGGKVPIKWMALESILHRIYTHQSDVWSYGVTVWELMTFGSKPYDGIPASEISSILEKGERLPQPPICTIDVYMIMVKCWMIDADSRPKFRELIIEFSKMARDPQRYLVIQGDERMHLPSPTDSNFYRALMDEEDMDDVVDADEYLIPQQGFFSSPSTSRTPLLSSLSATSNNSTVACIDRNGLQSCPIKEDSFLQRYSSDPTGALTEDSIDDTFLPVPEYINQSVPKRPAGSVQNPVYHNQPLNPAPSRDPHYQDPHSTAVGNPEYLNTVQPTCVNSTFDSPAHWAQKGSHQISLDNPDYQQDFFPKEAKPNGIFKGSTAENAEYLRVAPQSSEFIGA

`COc1cc(N2CCN(C)CC2)ccc1Nc1ncc(Cl)c(Oc2cccc(NC(=O)/C(C#N)=C/c3ccc(F)cc3)c2)n1`: the results for the pIC50 in experiment [1], in experiment [2] and in experiment [3] were 6.27, 5.15 and 6.92, respectively.
Regarding `COc1cc(N2CCN(C)CC2)ccc1Nc1ncc(Cl)c(Oc2cccc(NC(=O)/C(C#N)=C/C3CCCC3)c2)n1`, the negative-log IC50 (pIC50) in experiment [1] is 5.66; in experiment [2], below 5.00; in experiment [3] it was 5.92.
`COc1cc(N2CCN(C)CC2)ccc1Nc1ncc(Cl)c(Oc2cccc(NC(=O)/C(C#N)=C/c3ccc([N+](=O)[O-])cc3)c2)n1`: the pIC50 in experiment [1] was 5.64; in experiment [2], below 5.00; in experiment [3], 5.92.
For `COc1cc(N2CCN(C)CC2)ccc1Nc1ncc(Cl)c(Oc2cccc(NC(=O)/C(=C/c3ccc(N(C)C)cc3)C(F)(F)F)c2)n1` the same measures were 5.20, below 5.00 and 5.66.
Consider `COc1cc(N2CCN(C)CC2)ccc1Nc1ncc(Cl)c(Oc2cccc(NC(C)=O)c2)n1`, for which the figures for the negative logarithm of the IC50 (pIC50) in experiment [1], in experiment [2] and in experiment [3] were 6.31, below 5.00 and 6.74, respectively.
The corresponding values for `COc1cc(N2CCN(C)CC2)ccc1Nc1ncc(Cl)c(Oc2cccc(NC(=O)/C(=C/c3ccc(F)cc3)C(F)(F)F)c2)n1` are below 5.00, below 5.00 and 5.20.
For the compound `COc1cc(N2CCN(C)CC2)ccc1Nc1ncc(Cl)c(Oc2cccc(NC(=O)/C(C#N)=C/c3ccco3)c2)n1`, the results for the pIC50 in experiment [1], in experiment [2] and in experiment [3] were 5.89, below 5.00 and 6.48, respectively.
Regarding `COc1cc(N2CCN(C)CC2)ccc1Nc1ncc(Cl)c(Oc2cccc(NC(=O)/C(C#N)=C/c3ccc(N(C)C)cc3)c2)n1`, the negative logarithm of the IC50 (pIC50) in experiment [1], in experiment [2] and in experiment [3] was below 5.00 in each case.
Take `COc1cc(N2CCN(C)CC2)ccc1Nc1ncc(Cl)c(Oc2cccc(NC(=O)/C(C#N)=C/c3ccc(SC)cc3)c2)n1`: the values for the pIC50 in experiment [1], in experiment [2] and in experiment [3] were 6.08, 5.32 and 6.29, respectively.
As for `COc1cc(N2CCN(C)CC2)ccc1Nc1ncc(Cl)c(Oc2cccc(NC(=O)CCC3CC3)c2)n1`, the result in experiment [4] and in experiment [5] was inactive. For the same compound, the values for the pIC50 in experiment [1], in experiment [2] and in experiment [3] were 5.70, below 5.00 and 6.11, respectively.
For `COc1cc(N2CCN(C)CC2)ccc1Nc1ncc(Cl)c(Oc2cccc(NC(=O)/C(C#N)=C/C(C)C)c2)n1`, the pIC50 was 5.92 in experiment [1], below 5.00 in experiment [2] and 6.10 in experiment [3].
Take `COc1cc(N2CCN(C)CC2)ccc1Nc1ncc(Cl)c(Oc2cccc(NC(=O)/C(C#N)=C/C3CC3)c2)n1`: the result in experiment [4] was Active. Moreover, the Activity in experiment [6] turned out to be 560 Da.
Turning to `COc1cc(N2CCN(C)CC2)ccc1Nc1ncc(Cl)c(Oc2cccc(NC(=O)/C(C#N)=C/C(C)(C)C)c2)n1`, the pIC50 in experiment [1] was 5.89; in experiment [2], below 5.00; in experiment [3], 6.40.
For `COc1cc(N2CCN(C)CC2)ccc1Nc1ncc(Cl)c(Oc2cccc(NC(=O)/C(C#N)=C/c3cccc([N+](=O)[O-])c3)c2)n1`, the results for the negative-log IC50 (pIC50) in experiment [1], in experiment [2] and in experiment [3] were 5.74, below 5.00 and 6.14, respectively.
Consider `COc1cc(N2CCN(C)CC2)ccc1Nc1ncc(Cl)c(Oc2cccc(NC(=O)/C(C#N)=C/c3ccncc3)c2)n1`, for which the pIC50 in experiment [1] is 6.82; in experiment [2], 5.06; in experiment [3] it was 7.43.
`COc1cc(N2CCN(C)CC2)ccc1Nc1ncc(Cl)c(Oc2cccc(NC(=O)/C(C#N)=C/c3ccc(C#N)cc3)c2)n1`: the pIC50 in experiment [1] is 5.74; in experiment [2] it was below 5.00; in experiment [3], 6.03.
Turning to `COc1cc(N2CCN(C)CC2)ccc1Nc1ncc(Cl)c(Oc2cccc(NC(=O)/C=C/C3CC3)c2)n1`, the results for the pIC50 in experiment [1], in experiment [2] and in experiment [3] were 5.55, 5.25 and 6.08, respectively. The Activity in experiment [6] is 537 Da.
